Structures are written as SMILES. Read-outs that look alike come from different tables or passages of the source.

From patent US8940777B2 (priority 2008, dated 2015) come the findings set out here.

This experiment relates to Rhizoctonia solani. The experiment is classed as in vivo. The settings on record: cucumber (Sagami Hanjiro) seeds coated, 7 days after sowing. The method, then:
Thoroughly mixed were 2.5 parts of clothianidin, 1.25 parts of tolclofos-methyl, 14 parts of polyoxyethylene styryl phenyl ether, 6 parts of calcium dodecylbenzenesulfonate and 76.25 parts of xylene to give a formulation.
The formulation was diluted with acetone, to prepare an acetone mixed solution containing clothianidin and tolclofos-methyl of given concentration.
Five (5) g of cucumber (Sagami Hanjiro) seeds were coated with 1 ml of the mixed solution using a rotation mode seed treating machine (Seed Dresser, manufactured by Hans-Ulrich Hege GmbH), to give treated seeds.
The treated seeds were allowed to stand still overnight, then, sowed on a soil stuffed in a plastic pot, and covered by a soil blended with Rhizoctonia solani cultured in a bran medium. Cultivation thereof was performed at room temperature while irrigating. Seven (7) days after sowing, the number of non-budded seeds was checked, and the damaged ratio was calculated from the formula 1. Based on the damaged ratio, the control value was calculated from the formula 2.
For comparison, an acetone solution containing clothianidin of a given concentration, and an acetone solution containing tolclofos-methyl of a given concentration were prepared, and subjected to the same test. […]

Regarding `CN/C(=N\[N+](=O)[O-])NCc1cnc(Cl)s1` [Clothianidin, clothianidin], the Control value (active ingredient amount 200 g/100 kg-seed) came out at 4.

Molecule `COP(=S)(OC)Oc1c(Cl)cc(C)cc1Cl` [Tolclofos-methyl, tolclofos-methyl] returned a Control value (active ingredient amount 10 g/100 kg-seed) of 57.
